Eleven compounds from ChEMBL document CHEMBL1128103, “Thromboxane modulating agents. 1. Design of 1-[(arylsulfonyl)amino] alkylindole derivatives as dual thromboxane synthase inhibitor/thromboxane receptor antagonists” (Bioorg Med Chem Lett, 1995) can be followed below.

Where only a bound is given, the exact number is not on record here.

The target of experiment [1] is T1, Thromboxane A2 receptor (Rattus norvegicus, UniProt P34978).
T1 sequence (P34978 whole entry): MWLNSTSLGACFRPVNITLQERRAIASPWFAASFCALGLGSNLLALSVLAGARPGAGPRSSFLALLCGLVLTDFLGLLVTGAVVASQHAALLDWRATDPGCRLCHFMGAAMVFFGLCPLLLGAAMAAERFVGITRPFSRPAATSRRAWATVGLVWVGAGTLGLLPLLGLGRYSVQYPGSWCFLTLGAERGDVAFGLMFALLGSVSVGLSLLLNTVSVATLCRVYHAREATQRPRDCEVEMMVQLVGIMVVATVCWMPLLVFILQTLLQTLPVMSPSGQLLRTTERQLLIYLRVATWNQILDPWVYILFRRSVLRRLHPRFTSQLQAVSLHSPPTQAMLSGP
Kind of experiment: Compound was tested in vitro for Thromboxane A2 receptor antagonism by inhibiting contraction of rat aorta induced by the stable thromboxane agonist U-46,619. In kind it is functional, tissue-based. To be noted: read-out: pA2 (converted).

In another experiment the target is T2, Thromboxane-A synthase (Homo sapiens, UniProt P24557).
T2 sequence (P24557 whole entry): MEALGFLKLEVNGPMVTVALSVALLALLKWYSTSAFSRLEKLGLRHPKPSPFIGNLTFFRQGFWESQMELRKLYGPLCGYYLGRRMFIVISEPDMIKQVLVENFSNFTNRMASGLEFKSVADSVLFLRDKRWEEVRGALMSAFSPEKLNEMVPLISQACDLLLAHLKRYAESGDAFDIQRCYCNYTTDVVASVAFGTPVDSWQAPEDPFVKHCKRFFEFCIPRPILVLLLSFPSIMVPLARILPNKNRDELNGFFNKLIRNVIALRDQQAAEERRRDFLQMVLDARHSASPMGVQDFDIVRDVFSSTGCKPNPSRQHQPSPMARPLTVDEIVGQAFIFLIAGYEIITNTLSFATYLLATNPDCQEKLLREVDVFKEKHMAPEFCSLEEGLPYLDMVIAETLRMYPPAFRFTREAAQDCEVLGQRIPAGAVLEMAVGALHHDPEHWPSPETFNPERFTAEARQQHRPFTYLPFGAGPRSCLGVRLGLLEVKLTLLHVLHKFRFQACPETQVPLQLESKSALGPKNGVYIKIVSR
Kind of experiment: Compound was tested for the ability to inhibit human platelets microsomal Thromboxane A2 synthase.

Experiment [2] concerns the target T1, Thromboxane A2 receptor. Put plainly: Compound was tested in vitro for thromboxane A2 receptor antagonism by inhibiting contraction of rat aorta induced by the stable thromboxane agonist U-46,619. In kind it is functional, tissue-based. The conditions noted are these: read-out: pA2 (converted).
The target in experiment [3] is T1, Thromboxane A2 receptor. Put plainly: Compound was tested in vitro for Thromboxane A2 receptor antagonism by inhibiting contraction of rat aorta induced by the stable thromboxane agonist U-46,619; […]. To be noted: read-out: pA2 (converted). Format: functional, tissue-based.
The target of experiment [4] is T3, Thromboxane-A synthase (Homo sapiens) (UniProt P24557).
T3 sequence (whole entry): T2 sequence (P24557 whole entry)
Kind of experiment: Compound was tested for the ability to inhibit human platelets microsomal Thromboxane A2 synthase at 1 uM concentration.

The term IC50 denotes the concentration that gives 50% inhibition. Lower therefore signals inhibition by little substance. The inhibition is how much of the control response was suppressed. A low value points to a response near the control.

With `O=C(O)COc1ccc(CCNS(=O)(=O)c2ccccc2)cc1` [SULOTROBAN], the Kb on Thromboxane A2 receptor [1] was 81.3 nM. In the case of `Cc1c(Cc2ccncc2)c2cc(CCC(=O)O)ccc2n1CCNS(=O)(=O)c1ccc(F)cc1`, the IC50 against Thromboxane-A synthase stood at 78 nM. The Kb at Thromboxane A2 receptor [1] is 0.0741 nM. For `Cc1c(Cc2cccnc2)c2cc(CCC(=O)O)ccc2n1CCNS(=O)(=O)c1ccc(F)cc1`, in that order: 61 nM and 0.692 nM.

Take `Cc1[nH]c2ccc(CCC(=O)O)cc2c1Cc1ccncc1`: the Kb on Thromboxane A2 receptor [2] is 60.3 nM. On Thromboxane-A synthase, this compound had an IC50 of 22 nM.

For `Cc1c(C)n(CCNS(=O)(=O)c2ccc(F)cc2)c2ccc(CCC(=O)O)cc12`, the Kb at Thromboxane A2 receptor [1] is 2.51 nM. As for `Cc1c(Cn2ccnc2)n(CCCCNS(=O)(=O)c2ccc(F)cc2)c2ccc(C(=O)O)cc12`, half-maximal inhibition against Thromboxane-A synthase (IC50) was put at 39 nM. Besides, the Kb on Thromboxane A2 receptor [3] is above 1000 nM. As for `Cc1c(Cn2ccnc2)c2cc(CCC(=O)O)ccc2n1CCNS(=O)(=O)c1ccc(F)cc1`, at Thromboxane-A synthase, half-maximal inhibition (IC50) was put at 39 nM. Also, the Kb at Thromboxane A2 receptor [1] was 1.58 nM. In turn, `Cc1c(Cn2ccnc2)n(CCNS(=O)(=O)c2ccc(F)cc2)c2ccc(CCC(=O)O)cc12` gave an IC50 on Thromboxane-A synthase of 135 nM. Besides, on Thromboxane A2 receptor [1], the Kb was 138 nM. Compound `Cc1c(Cn2ccnc2)n(CCNS(=O)(=O)c2ccc(F)cc2)c2ccc(C(=O)O)cc12` gave a 50% inhibitory concentration (IC50) against Thromboxane-A synthase of 20 nM. For the same compound, the Kb at Thromboxane A2 receptor [3] is above 1000 nM. For `Cc1c(Cn2ccnc2)n(CCCNS(=O)(=O)c2ccc(F)cc2)c2ccc(C(=O)O)cc12`, in that order: 15 nM and above 1000 nM. In the case of `O=C(O)CCc1ccc2c(c1)c(Cc1ccncc1)cn2CCNS(=O)(=O)c1ccc(F)cc1`, at Thromboxane A2 receptor [2], the Kb was 7.59 nM. In addition, the inhibition in experiment [4] stood at 42%.
